The record followed here is PMC6385020 (Molecules, 2019).

By IC50 is commonly meant the concentration at which inhibition is half-maximal. Low values mean greater potency, high ones weaker potency.

Structures are written as SMILES. Values joined by “and” are separate entries in the source; they are usually repeats but may differ in a detail not shown here. Equal entries are not always repeated.

The test system of assay [1] is 22AG human telomeric sequence G4. Description: PhenDV G4-FID assay. The class given is binding. To be noted: PhenDV 1.5 eq, K+100 buffer. On the procedure:
(§1) For the G4-FID assay, the oligonucleotides were dissolved in K^+100 buffer (10 mM lithium cacodylate buffer pH 7.3, 100 mM KCl, 1% DMSO). Oligonucleotide concentrations were determined on the basis of their absorbance at 260 nm. For the fluorimetric titration, the oligonucleotides were dissolved in K^+100 buffer without DMSO. For the FRET-melting assay, the oligonucleotides were dissolved in K^+1 buffer (10 mM lithium cacodylate buffer pH 7.3, 1 mM KCl, 99 mM LiCl) except for F-21-T. F-21-T was dissolved in K^+10 buffer (10 mM lithium cacodylate buffer pH 7.3, 10 mM KCl, 90 mM LiCl).
(§2) Prior to use, all oligonucleotides were pretreated by heating at 95 °C for 5 min, then rapidly cooled to 4 °C to favor the intramolecular folding by kinetic trapping. Duplex-DNA ds26 was prepared by heating the self-complementary strand at 90 °C for 5 min in K^+1 buffer followed by a slow cooling over 6 h.
(§3) Each G4-FID assay was performed in a 96-well Non-Binding Surface black with black bottom polystyrene microplates (Corning). Every ligand was tested on a line of the microplate, in duplicate. The microplate was filled with (a) K^+100 solution (qs for 200 μL), (b) 10 μL of a solution of pre-folded oligonucleotides (5 μM) and fluorescent probe (TO/TO-PRO-3 (10 μM—2 eq) or PhenDV (7,5 µM—1.5 eq)), and (c) an extemporaneously prepared 5 μM ligand solution in K^+100 buffer (0 to 100 μL) along the line of the microplate, i.e., from column A to column H: 0, 0.125, 0.25, 0.375, 0.5, 0.625, 0.75, 1.0, 1.25, 1.5, 2.0, and 2.5 μM. After 5 min of orbital shaking at 500 rpm, fluorescence is measured using the following experimental parameters: positioning delay of 0.5 s, 20 flashes per well, emission/excitation filters for TO at 485/520, TO-PRO-3 at 620/670, and PhenDV at 355/520 gain adjusted at 80% of the fluorescence from the most fluorescent well (i.e., a well from column A for TO and a well from column H).
(§4) In the case of PhenDV, the fluorescence of the unbound probe is not negligible. The percentage of displacement becomes (2) % PhenDV Displacement=F−F0/Fligand+probe−F0
(§5) The PhenDV displacement is calculated from the fluorescence intensity F; F(ligand+probe), which refers to the fluorescence of the probe in presence of the ligand (without G4); and F0, which is the fluorescence without added ligand. The term F(ligand+probe) is necessary as the ligand can quench the fluorescence of the probe. The percentage of displacement is then plotted as a function of the concentration of the added ligand. The DNA affinity was evaluated by the concentration of ligand required to decrease the fluorescence of the probe by 50%, was noted DC50, and was determined after non-linear fitting of the displacement curve.

The test system of assay [2] is c-myc G4. Description: PhenDV G4-FID assay. The class given is binding. As to conditions: PhenDV 1.5 eq, K+100 buffer. On the procedure:
as §1, §2, §3, §4, §5

For assay [3], the system named is CEB25-WT minisatellite sequence G4. Description: PhenDV G4-FID assay. It counts as binding. As to conditions: PhenDV 1.5 eq, K+100 buffer. As for the experimental part: as §1, §2, §3, §4, §5
Assay [4] has as its system A2780 ovarian cancer cell line. Description: Cell growth (proliferation), 96 h treatment. As to conditions: A2780, 96 h treatment. It counts as cell-based, human. On the procedure: (§6) The ovarian carcinoma cell lines and human normal lung cells were purchased from ATCC and were grown in complete RPMI medium (ovarian) and DMEM (human lung cells) supplemented with 10% fetal calf serum, in the presence of penicillin, streptomycin. The resistance of A2780cis cells to cisplatin was maintained by monthly treatment with 1 µM cisplatin for 4 days. Concentrated stock solutions of complexes were conserved at −20 °C (DMSO/Water) and freshly diluted in water just before the experiments. Cells were treated with various concentrations of platinum complexes at 37 °C under humidity and 5% CO2 conditions for 96 h. Cellular growth was quantified using the particle counter MOXI (VWR).

Assay [5] has as its system A2780cis cisplatin-resistant ovarian cancer cell line. Description: Cell growth (proliferation), 96 h treatment. It counts as cell-based, human. To be noted: 96 h treatment; for IC50: A2780cis. As for the experimental part:
as §6

The subject of assay [6] is CCD19Lu normal lung cell line. Description: Cell growth (proliferation), 96 h treatment. It counts as cell-based, human. As for the experimental part:
as §6

For assay [7], the system named is 22AG human telomeric sequence G4. Description: TO G4-FID assay. As to conditions: TO 2 eq, K+100 buffer. It counts as binding. As for the experimental part: as §1, §2, §3
(§7) The percentage of TO displacement is calculated from the fluorescence intensity (F), using (1) % TO displacement=1−F/F0 where F0 is the fluorescence from the fluorescent probe bound to DNA without added ligand.
as §5

Assay [8] deals with c-myc G4. Description: TO G4-FID assay. It counts as binding. As to conditions: TO 2 eq, K+100 buffer. On the procedure:
as §1, §2, §3, §7, §5

Assay [9] concerns CEB25-WT minisatellite sequence G4. Description: TO G4-FID assay. It counts as binding. To be noted: TO 2 eq, K+100 buffer. On the procedure:
as §1, §2, §3, §7, §5

For assay [10], the system named is 22AG (DNA, G4) AGGGTTAGGGTTAGGGTTAGGG
Description: G4-FID, thiazole orange displacement. As to conditions: 100 mM KCl; 10 mM lithium cacodylate pH 7.3, 1% DMSO; thiazole orange displaced; 1 µM compound, 0.25 µM DNA.

The test system of assay [11] is c-myc (myc22) (DNA, G4) TGAGGGTGGGTAGGGTGGGTAA
Description: G4-FID, thiazole orange displacement. As to conditions: 100 mM KCl; 10 mM lithium cacodylate pH 7.3, 1% DMSO; thiazole orange displaced; 1 µM compound, 0.25 µM DNA.

The test system of assay [12] is 22AG human telomeric sequence G4. Description: TO-PRO-3 G4-FID assay. The class given is binding. As to conditions: TO-PRO-3 2 eq, K+100 buffer. On the procedure: as §1, §2, §3, §7, §5
Assay [13] concerns c-myc G4. Description: TO-PRO-3 G4-FID assay. It counts as binding. To be noted: TO-PRO-3 2 eq, K+100 buffer. As for the experimental part:
as §1, §2, §3, §7, §5

For assay [14], the system named is CEB25-WT minisatellite sequence G4. Description: TO-PRO-3 G4-FID assay. The class given is binding. To be noted: TO-PRO-3 2 eq, K+100 buffer. As for the experimental part:
as §1, §2, §3, §7, §5

The test system of a further assay is duplex ds26 DNA. Description: TO G4-FID assay. It counts as binding. To be noted: ds26, K+100 buffer. As for the experimental part:
as §1, §2
Each G4-FID assay was performed in a 96-well Non-Binding Surface black with black bottom polystyrene microplates (Corning). Every ligand was tested on a line of the microplate, in duplicate. […] After 5 min of orbital shaking at 500 rpm, fluorescence is measured using the following experimental parameters: positioning delay of 0.5 s, 20 flashes per well, emission/excitation filters for TO at 485/520, TO-PRO-3 at 620/670, and PhenDV at 355/520 gain adjusted at 80% of the fluorescence from the most fluorescent well (i.e., a well from column A for TO and a well from column H).
as §7
The PhenDV displacement is calculated from the fluorescence intensity F; F(ligand+probe), which refers to the fluorescence of the probe in presence of the ligand (without G4); and F0, which is the fluorescence without added ligand. The term F(ligand+probe) is necessary as the ligand can quench the fluorescence of the probe. […]

Assay [15] relates to 21CTA human telomeric sequence variant G4. The class given is binding. To be noted: PhenDV 1.5 eq, K+100 buffer. On the procedure:
as §1, §2, §3, §4, §5

Assay [16] has as its system 21CTA (DNA, G4) AGGGCTAGGGCTAGGGCTAGGG
Description: G4-FID, thiazole orange displacement. To be noted: 100 mM KCl; 10 mM lithium cacodylate pH 7.3, 1% DMSO; thiazole orange displaced; 1 µM compound, 0.25 µM DNA.

The test system of assay [17] is G4 structures (22AG, c-myc, 21CTA, CEB25-WT). Description: TO-PRO-3-G4-FID assay, G4 structures. It counts as binding. As for the experimental part: as §1, §2, §3, §7, §5

As for `CN(C)CCCNCc1ccc(-c2cc(-c3ccccn3)nc(-c3ccccn3)c2)cc1.[Cl-].[Cl][Pt+]` [Pt-ctpy], the “% of PhenDV displacement at 1 µM of ligand” value (shortened to “% of PhenDV displacement”) stood at 84% in assay [1], 29% with c-myc G4 [2], 72% in assay [3] and 100% in assay [15]. Moreover, the half-maximal inhibitory concentration (IC50) in assay [4] turned out to be 4.6 µM; in [5], 5 µM; in [6], 5.2 µM. In addition, in assay [5], the “Resistance Factor (IC50ratio A2780cis/A2780)” value worked out at 1.1. For the same compound, the “% of TO displacement at 1 µM of ligand” value was 88% in assay [7]; 76% in the assay with c-myc G4 [8]; 82% in assay [9]; < 20% and 17% with duplex ds26 DNA. Further, the “% TO displacement” value in assay [10], in [11] and in [16] was over 80% in each case. In addition, the “% of TOPRO3 displacement at 1 µM of ligand” value (shortened to “% of TOPRO3 displacement”) was found to be 78% in assay [12], 58% with c-myc G4 [13] and 76% in [14].
Consider `Cc1ccc(-c2cc(-c3ccccn3)nc(-c3ccccn3)c2)cc1.[Cl-].[Cl][Pt+]` [Pt-ttpy], for which the “% of PhenDV displacement” value was found to be 63% in assay [1], 22% in the assay with c-myc G4 [2], 45% in assay [3] and 90% in [15]. In addition, the IC50 in assay [4] is 2.5 µM; in assay [5], 2.5 µM; in assay [6], 1.75 µM. Also, the “Resistance Factor (IC50ratio A2780cis/A2780)” value in [5] worked out at 1.0. The “% of TO displacement at 1 µM of ligand” value is 80% in assay [7], 64% in the assay on c-myc G4 [8], 66% in assay [9] and under 20% in the assay with duplex ds26 DNA. Moreover, the “% TO displacement” value in assay [10], in assay [11] and in [16] was over 80% throughout. Further, the figures for the “% of TOPRO3 displacement” value (in [12]; with c-myc G4 [13]; in assay [14]) were 65%, 76% and 62%, respectively.
For `CN(C)c1ccc(/C=C/c2cc(-c3ccccn3)nc(-c3ccccn3)n2)cc1.[Cl-].[Cl][Pt+]` [Pt-vpym, Chloro-(E)-4-(2-(2,6-di(pyridin-2-yl)pyrimidin-4-yl)vinyl)-N,N-dimethylaniline-platinum(II) Chloride], the IC50 worked out at 0.7 µM in assay [4], 0.4 µM in assay [5] and 0.7 µM in assay [6]. In addition, in assay [5], the “Resistance Factor (IC50ratio A2780cis/A2780)” value is 0.6. The results for the “% of TOPRO3 displacement” value (in assay [12]; with c-myc G4 [13]; in [14]) were 28%, 32% and 23%, respectively. This compound gave a TO-PRO-3 displacement in [17] of 30%.
Turning to `[Cl-].[Cl][Pt+].c1ccc(-c2cccc(-c3ccccn3)n2)nc1` [Pt-tpy], the “% of PhenDV displacement” value in assay [1] came out at 24%; with c-myc G4 [2], 5%; in assay [3] it was 13%; in [15], 35%. Moreover, the IC50 in [4] worked out at 3 µM; in [5], 5 µM; in [6], 3 µM. In addition, the “Resistance Factor (IC50ratio A2780cis/A2780)” value in assay [5] is on record as 1.6. The “% of TO displacement at 1 µM of ligand” value in assay [7] is 21%; in the assay with c-myc G4 [8], 41%; in [9], 14%. The “% of TOPRO3 displacement” value is on record as 12% in assay [12] and 32% with c-myc G4 [13]. In assay [17], the TO-PRO-3 displacement result was “weak displacement”.
In the case of `[Cl-].[Cl][Pt+].c1ccc(-c2cc(-c3ccc(OCCN4CCCC4)cc3)nc(-c3ccccn3)n2)nc1` [Pt-cpym, Chloro-(2,4-di(pyridin-2-yl)-6-(4-(2-(pyrrolidin-1-yl)ethoxy)phenyl)pyrimidine)-platinum(II) Chloride], the “% of PhenDV displacement” value in assay [1] was 43%; in the assay on c-myc G4 [2] it was 3%; in [3], 33%; in [15] it was 72%. In addition, the concentration for half-maximal inhibition (IC50) was found to be 3.8 µM in assay [4], 5 µM in assay [5] and 1.8 µM in [6]. Besides, the “Resistance Factor (IC50ratio A2780cis/A2780)” value in [5] is 1.3. The “% of TO displacement at 1 µM of ligand” value in assay [7] was determined as 67%; in the assay on c-myc G4 [8], 33%; in [9] it was 43%; in the assay on duplex ds26 DNA, 2%. Also, the “% TO displacement” value in [10], in assay [11] and in assay [16] was under 60% each time. Further, the “% of TOPRO3 displacement” value in assay [12] is reported as 25%. The TO-PRO-3 displacement entry in assay [17] is listed as “weak displacement”.
